Experimental data published in ChEMBL document CHEMBL1148453, “Parallel solution-phase synthesis of conformationally restricted congeners of pentamidine and evaluation of their antiplasmodial activities” (J Med Chem, 2004).

Legend:
Nucleic Acid = experiment: Binding affinity for poly dA-dT DNA by measuring the change in midpoint of the thermal denaturation curves; type: nucleic-acid assay
Calf thymus DNA = experiment: Binding affinity for calf thymus DNA by measuring the change in midpoint of the thermal denaturation curves; type: nucleic-acid assay; details: Bos taurus
Plasmodium falciparum [1] = experiment: microbe, parasite or virus in culture
Description: In vitro antiparasitic activity against chloroquine-sensitive Plasmodium falciparum Haiti 135

Plasmodium falciparum [2] = experiment: microbe, parasite or virus in culture; remark: listed apart in the source
Description: In vitro antiparasitic activity against chloroquine-resistant Plasmodium falciparum Indochina I

A549 = experiment: Cytotoxicity against human lung cell carcinoma A549 cell line; type: functional, cell-based

SMILES | ΔTm (Nucleic Acid) [°C] | ΔTm (Calf thymus DNA) [°C] | IC50 (Plasmodium falciparum [1]) [nM] | IC50 (Plasmodium falciparum [2]) [nM] | IC50 (A549) [nM]
CN1CCN(C)C1c1ccc(N2CCN(c3ccc(C4N(C)CCN4C)cc3)CC2)cc1 | 1.8 | 2.4 | > 500 | > 500 | –
N=C(N)c1ccc(OCCCCCOc2ccc(C(=N)N)cc2)cc1 [PENTAMIDINE] | 20.6 | 11.1 | 15 | 45 | 40000
N=C(N)c1ccc(N2CCCN(c3ccc(C(=N)N)cc3)CC2)cc1 | 23.1 | 15 | 150 | 100 | > 204000
c1cc(N2CCN(c3ccc(C4OCCO4)cc3)CC2)ccc1C1OCCO1 | 0.1 | -1.2 | > 500 | > 500 | –
CCOC(=O)c1ccc(N2CCN(c3ccc(C(=O)OCC)cc3)CC2)cc1 | 0 | 0.6 | > 500 | > 500 | –
c1ccc(N2CCN(c3ccccc3)C2c2ccc(N3CCN(c4ccc(C5N(c6ccccc6)CCN5c5ccccc5)cc4)CC3)cc2)cc1 | 0 | -1.2 | > 500 | > 500 | –
NNC(=O)c1ccc(N2CCN(c3ccc(C(=O)NN)cc3)CC2)cc1 | 0 | 0.1 | > 500 | > 500 | –
CCN(CC)CCCC(C)Nc1ccnc2cc(Cl)ccc12 (stereo unspecified) [CHLOROQUINE] | – | – | – | – | 40000
